Laboratory results taken from ChEMBL document CHEMBL4270632, “CD73 inhibition by purine cytotoxic nucleoside analogue-based diphosphonates” (Eur J Med Chem, 2018).
Calls of active or inactive are those of the source. The calls are words filed in the database; no cut-off is given here.

Key:
[1] = molecular target: T1, 5'-nucleotidase (Homo sapiens, UniProt P21589); assay: Inhibition of recombinant CD73 (27 to 549 residues) (unknown origin) expressed in baculovirus infected Sf9 insect cells assessed as reduction in conversion of AMP to adenosine incubated for 1 min followed by AMP addition measured after 3.5 mins by malachite green reagent based assay
T1 sequence (P21589 whole entry, the tested form may be a part): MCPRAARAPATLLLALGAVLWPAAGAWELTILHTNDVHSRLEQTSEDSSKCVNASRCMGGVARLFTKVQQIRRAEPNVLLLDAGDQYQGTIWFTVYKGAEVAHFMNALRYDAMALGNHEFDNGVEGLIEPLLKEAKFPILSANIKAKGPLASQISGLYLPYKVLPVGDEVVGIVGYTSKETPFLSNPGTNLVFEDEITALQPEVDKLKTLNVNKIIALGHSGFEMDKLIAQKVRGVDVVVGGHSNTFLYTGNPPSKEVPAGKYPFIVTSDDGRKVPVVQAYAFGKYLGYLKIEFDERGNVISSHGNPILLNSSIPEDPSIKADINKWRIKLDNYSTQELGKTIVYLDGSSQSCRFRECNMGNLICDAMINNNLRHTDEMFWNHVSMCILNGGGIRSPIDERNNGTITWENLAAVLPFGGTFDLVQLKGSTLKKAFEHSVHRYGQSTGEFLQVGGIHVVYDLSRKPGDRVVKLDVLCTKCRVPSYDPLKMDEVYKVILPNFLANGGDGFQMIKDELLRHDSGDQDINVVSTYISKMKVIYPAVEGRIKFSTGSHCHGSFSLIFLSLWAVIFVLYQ

[2] = molecular target: T1, 5'-nucleotidase; assay: Inhibition of CD73 in human MDA-MB-231 cells assessed as reduction in conversion of AMP to adenosine incubated for 30 mins by malachite green reagent based assay; type: cell-based
[3] = molecular target: T1, 5'-nucleotidase; assay: Inhibition of CD73 in human NCI-H292 cells assessed as reduction in conversion of AMP to adenosine incubated for 30 mins by malachite green reagent based assay; type: cell-based
[4] = tested on: CCRF-CEM; assay: Cytotoxicity against human CCRF-CEM cells assessed as decrease in cell viability after 72 hrs by MTT assay; type: cell-based
[5] = tested on: Granta; assay: Cytotoxicity against human Granta cells assessed as decrease in cell viability after 72 hrs by MTT assay; type: cell-based
[6] = tested on: RL; assay: Cytotoxicity against human RL cells assessed as decrease in cell viability after 72 hrs by MTT assay; type: cell-based
[7] = tested on: HL-60; assay: Cytotoxicity against human HL60 cells assessed as decrease in cell viability after 72 hrs by MTT assay; type: cell-based; settings: HL-60, 72 h

Compound	inhibition [1]	IC50 [2]	IC50 [3]	IC50 [4]	IC50 [5]	IC50 [6]	IC50 [7]	IC50 [1]
Nc1nc(F)nc2c1ncn2[C@@H]1O[C@H](COP(=O)(O)CP(=O)(O)O)[C@@H](O)[C@@H]1O	Active	112 µM	2.2 µM	–	–	–	–	–
Nc1nc(Cl)nc2c1ncn2[C@@H]1O[C@H](CO)[C@@H](O)[C@@H]1F [CLOFARABINE]	–	–	–	0.044 µM	0.017 µM	0.38 µM	0.04 µM	–
Nc1nc(Cl)nc2c1ncn2[C@H]1C[C@H](O)[C@@H](COP(=O)(O)CP(=O)(O)O)O1	Active	147 µM	2 µM	–	–	–	–	–
Nc1ncnc2c1ncn2[C@@H]1O[C@H](COP(=O)(O)CP(=O)(O)O)[C@@H](O)[C@H]1O [PHOSPHOMETHYLPHOSPHONIC ACID ADENOSYL ESTER]	–	21.4 µM	23.6 µM	–	–	–	–	3.8 µM
Nc1nc(Cl)nc2c1ncn2[C@@H]1O[C@H](COP(=O)(O)CP(=O)(O)O)[C@@H](O)[C@@H]1F	–	3.2 µM	0.24 µM	50.6 µM	39.5 µM	> 300 µM	49.4 µM	0.18 µM
